Legend:
S. aureus [1] = conditions: known; cited from earlier work
M. globosa [2] = assay: Microbiome balance model, sebaceous skin mixture: M. globosa; assay type: cell-based, Malassezia globosa; conditions: 4 h at 37° C.
Method: (§1) Thus, in particular the term ‘by not unproportionally affecting the growth of anyone thereof’ refers to a balancing of at least two, preferably all dry skin or sebaceous skin microbes as defined herein in the mutual presence thereof, wherein only small changes in the difference in the (individual) shares of the microbes compared to the corresponding shares of the control are observed. Preferably, the small changes in the (individual) share (after 4 h of incubation at 37° C.) is less than ±15%, in particular less than ±10%, most in particular less than ±7.5%, compared to the control. Said change in the share is calculated as: share of the respective microbe within the group of at least two, preferably all microbes of dry or sebaceous skin in the presence of 1,3-PDO [%] minus share of the same microbe within the same group of microbes in the absence of 1,3-PDO [%], both after 4 h of incubation at 37° C. as illustrated in the example.
(§2) The ‘not unproportionally affected growth’ can also be assessed by determining an overall impact value, by • (1) assessing the impact of the ingredient on the individual microbe (i) and assigning an individual impact value x′(i) to said microbe as outlined below: • [formula] • If x(i) is • a) ≤ 0.1 then an integer x′(i) of 1 is assigned (no impact) • b) >0.1 ≤ 0.5then an integer x′(i) of 2 is assigned (slight impact) • c) > 0.5 then an integer x′(i) of 3 is assigned (significant impact), followed by • (2) assessing the overall effect of the ingredient on the respective microbiome by calculating the overall impact value y with formula (II) • [formula] • with n being the total number of microbes in the respective microbiota, wherein a good balancing is characterized by an overall impact value y of less than 2, preferably less than 1.75, most preferably less than 1.7.
(§3) 5 mL of TSB (Tryptic Say Broth) to which no (Ref.1) or 500 µL of 2 wt.-% of 1,3-propanediol (1,3-PDO) in PBS (Phosphate-buffered saline) have been added. Then this solutions have been inoculated by 500 µL of the respective calibrated mixture of the microbes as outlined below. Directly after inoculation and/or after 4 hours of incubation at 37° C., 100 µL have been taken and plated on an Agar gel petri dish. The microbes have then been counted based on the colony specific morphology and/or size.
(§4) All shares have been rounded.

S. epidermidis [3] = assay: Microbiome balance model, sebaceous skin mixture: S. epidermidis; assay type: cell-based, Staphylococcus epidermidis
Method: as §1, §2, §3, §4

S. capitis = assay: Microbiome balance model, sebaceous skin mixture: S. capitis; assay type: cell-based, Staphylococcus capitis; conditions: 4 h at 37° C.
Method: as §1, §2, §3, §4

C. acnes = assay: Microbiome balance model, sebaceous skin mixture: C. acnes; assay type: cell-based, Cutibacterium acnes; conditions: 4 h at 37° C.
Method: as §1, §2, §3, §4

[4] = test system: microbes of sebaceous skin; assay: Microbiome balance model, sebaceous skin mixture: total of all microbes; assay type: cell-based; conditions: 4 h at 37° C.
Method: (§5) Preferably, the difference in total number of said at least two, preferably all microbes, compared to the respective total number in the absence of 1,3-propanediol (i.e. the control), after 4 h of incubation at 37° C., is within a range of ±50%, preferably ±40%, more preferably ±15%, most preferably ±10%.
as §2, §3, §4

S. oralis = assay: Microbiome balance model, dry skin mixture: S. oralis; assay type: cell-based, Streptococcus oralis; conditions: 4 h at 37° C.
Method: as §1, §2, §3, §4

S. epidermidis [5] = assay: Microbiome balance model, S. epidermidis/S. aureus co-culture: S. epidermidis; assay type: cell-based, Staphylococcus epidermidis; conditions: co-culture with S. aureus
Method: (§6) The term ‘share’ as used herein refers to the share of each (individual) microbe, based on the total number of microbes in the respective group of microbes in % (i.e. the at least two, preferably all dry or sebaceous skin microbes as defined herein, respectively S. epidermidis and ), either before or after inoculation (as indicated). The share is calculated using the colony count of the respective (individual) microbe divided by the sum of the colony counts of all microbes of the respective microbiota * 100%.
as §3, §4

S. mitis [6] = assay: Microbiome balance model, dry skin mixture: S. mitis; assay type: cell-based, Streptococcus mitis; conditions: 4 h at 37° C.
Method: as §1, §2, §3, §4

microbes of dry skin = assay: Microbiome balance model, dry skin mixture: total of all microbes; assay type: cell-based; conditions: 4 h at 37° C.
Method: as §5, §2, §3, §4

C. tuberculostearicum = assay: Microbiome balance model, dry skin mixture: C. tuberculostearicum; assay type: cell-based, Corynebacterium tuberculostearicum; conditions: 4 h at 37° C.
Method: as §1, §2, §3, §4

S. aureus [7] = assay: Microbiome balance model, S. epidermidis/S. aureus co-culture: S. aureus; assay type: cell-based, Staphylococcus aureus; conditions: co-culture with S. epidermidis
Method: as §6, §3, §4

S. mitis [8] = assay: Microbiome balance model, sebaceous skin mixture: S. mitis; assay type: cell-based, Streptococcus mitis; conditions: 4 h at 37° C.
Method: as §1, §2, §3, §4

M. luteus = assay: Microbiome balance model, dry skin mixture: M. luteus; assay type: cell-based, Micrococcus luteus; conditions: 4 h at 37° C.
Method: as §1, §2, §3, §4

P. acnes = assay: Microbiome balance model, dry skin mixture: P. acnes; assay type: cell-based, Cutibacterium acnes; conditions: 4 h at 37° C.
Method: as §1, §2, §3, §4

E. coli = conditions: known; cited from earlier work
M. globosa [9] = assay: Microbiome balance model, dry skin mixture: M. globosa; assay type: cell-based, Malassezia globosa; conditions: 4 h at 37° C.
Method: as §1, §2, §3, §4

C.simulans = assay: Microbiome balance model, sebaceous skin mixture: C. simulans; assay type: cell-based, Corynebacterium simulans; conditions: 4 h at 37° C.
Method: as §1, §2, §3, §4

S. hominis = assay: Microbiome balance model, sebaceous skin mixture: S. hominis; assay type: cell-based, Staphylococcus hominis
Method: as §1, §2, §3, §4

[10] = after 4 hours of incubation at 37° C.
[11] = directly after inoculation, 500 µL of 2 wt.-% in PBS in 5 mL TSB

1,3-Propanediol [1,3-PDO]
antimicrobial effect on S. aureus (S. aureus [1]): antimicrobial effect
M. globosa change in share vs control (M. globosa [2]): -4%^1
M. globosa counts of colony (M. globosa [2]): 2900 CFU/ml
M. globosa share (M. globosa [2]): 27%
M. globosa valuation, impact value x(i)′ (M. globosa [2]): 2^3 (>0.1 ≤ 0.5then an integer x′(i) of 2 is assigned (slight impact))
growth of S. epidermidis compared to the control, in words (S. epidermidis [3]): increased
S. epidermidis change in share vs control (S. epidermidis [3]; 4 h at 37° C.): +5%^1
S. epidermidis counts of colony (S. epidermidis [3]; 4 h at 37° C.): 2255 CFU/ml
S. epidermidis share (S. epidermidis [3]; 4 h at 37° C.): 21%
S. epidermidis valuation, impact value x(i)′ (S. epidermidis [3]; 4 h at 37° C.): 2^3 (>0.1 ≤ 0.5then an integer x′(i) of 2 is assigned (slight impact))
S. capitis counts of colony (S. capitis): 664 CFU/ml
S. capitis share (S. capitis): 6%
S. capitis valuation, impact value x(i)′ (S. capitis): 2^3 (>0.1 ≤ 0.5then an integer x′(i) of 2 is assigned (slight impact))
C. acnes change in share vs control (C. acnes): +1%^1
C. acnes counts of colony (C. acnes): 2664 CFU/ml
C. acnes share (C. acnes): 25%
C. acnes valuation, impact value x(i)′ (C. acnes): 1^3 (≤ 0.1 then an integer x′(i) of 1 is assigned (no impact))
Change of total CFU/ml vs control [4]: -7%^2
Total counts of colony [4]: 10783 CFU/ml
Total share [4]: 100%
overall impact value y [4]: 1.6^4
S. oralis change in share vs control (S. oralis): +5%^1
S. oralis counts of colony (S. oralis): 5700 CFU/ml
S. oralis share (S. oralis): 27%
S. oralis valuation, impact value x(i)′ (S. oralis): 3^3 (> 0.5 then an integer x′(i) of 3 is assigned (significant impact))
CSE4h counts of colony of S. epidermidis (S. epidermidis [5]; [10]): 170 CFU/ml
CSE4h share of S. epidermidis (S. epidermidis [5]; [10]): 77%
CSE0 share of S. epidermidis (S. epidermidis [5]; directly after inoculation): 89%
CSE0 counts of colony of S. epidermidis (S. epidermidis [5]; [11]): 235 CFU/ml
share of S. epidermidis, effect in words (S. epidermidis [5]; t = 0 vs t = 4 h): significantly altered
S. mitis change in share vs control (S. mitis [6]): +6%^1
S. mitis counts of colony (S. mitis [6]): 6600 CFU/ml
S. mitis share (S. mitis [6]): 31%
S. mitis valuation, impact value x(i)′ (S. mitis [6]): 3^3 (> 0.5 then an integer x′(i) of 3 is assigned (significant impact))
Change of total CFU/ml vs control (microbes of dry skin): +38%^2
Total counts of colony (microbes of dry skin): 21082 CFU/ml
overall impact value (microbes of dry skin): 1.7^4
C. tuberculostearicum change in share vs control (C. tuberculostearicum): -1%^1
C. tuberculostearicum counts of colony (C. tuberculostearicum): 909 CFU/ml
C. tuberculostearicum share (C. tuberculostearicum): 4%
C. tuberculostearicum valuation, impact value x(i)′ (C. tuberculostearicum): 1^3 (≤ 0.1 then an integer x′(i) of 1 is assigned (no impact))
CSA4h counts of colony of S. aureus (S. aureus [7]; [10]): 50 CFU/ml
CSA4h share of S. aureus (S. aureus [7]; [10]): 23%
CSA0 share of S. aureus (S. aureus [7]; directly after inoculation): 11%
CSA0 counts of colony of S. aureus (S. aureus [7]; [11]): 30 CFU/ml
S. mitis change in share vs control (S. mitis [8]): -2%^1
S. mitis counts of colony (S. mitis [8]): 1300 CFU/ml
S. mitis share (S. mitis [8]): 12%
S. mitis valuation, impact value x(i)′ (S. mitis [8]): 2^3 (>0.1 ≤ 0.5then an integer x′(i) of 2 is assigned (slight impact))
M. luteus change in share vs control (M. luteus): -1%^1
M. luteus counts of colony (M. luteus): 873 CFU/ml
M. luteus share (M. luteus): 4%
M. luteus valuation, impact value x(i)′ (M. luteus): 1^3 (≤ 0.1 then an integer x′(i) of 1 is assigned (no impact))
P. acnes change in share vs control (P. acnes): -4%^1
P. acnes counts of colony (P. acnes): 3200 CFU/ml
P. acnes share (P. acnes): 15%
P. acnes valuation, impact value x(i)′ (P. acnes): 1^3 (≤ 0.1 then an integer x′(i) of 1 is assigned (no impact))
antimicrobial effect on E. coli (E. coli): antimicrobial effect
M. globosa change in share vs control (M. globosa [9]): -6%^1
M. globosa counts of colony (M. globosa [9]): 3800 CFU/ml
M. globosa share (M. globosa [9]): 18%
M. globosa valuation, impact value x(i)′ (M. globosa [9]): 1^3 (≤ 0.1 then an integer x′(i) of 1 is assigned (no impact))
C.simulans counts of colony (C.simulans): 627 CFU/ml
C.simulans share (C.simulans): 6%
C.simulans valuation, impact value x(i)′ (C.simulans): 1^3 (≤ 0.1 then an integer x′(i) of 1 is assigned (no impact))
growth of S. hominis compared to the control, in words (S. hominis): increased
S. hominis counts of colony (S. hominis; 4 h at 37° C.): 373 CFU/ml
S. hominis share (S. hominis; 4 h at 37° C.): 3%
S. hominis valuation, impact value x(i)′ (S. hominis; 4 h at 37° C.): 1^3 (≤ 0.1 then an integer x′(i) of 1 is assigned (no impact))

From patent US20230301885A1, “NOVEL USE” (DSM IP ASSETS B.V., priority 2020, published 2023)
